Where a name gives a salt, the structure may show the parent alone.
Experiments:
[1] = Solubility in water of chitosan oligosaccharides (Table 1); assay type: physicochemical
[2] = CH3OH solubility of chitosan oligosaccharides (Table 1); assay type: physicochemical; settings: methanol, organic solvent or mixture
[3] = in water, read-out: Solubility (% in water)
[4] = CH3OH, 20° C., read-out: CH3OH Solubility

Row | solubility ([1]; water) | solubility [2] | solubility [1, 3] | solubility [2, 4] | Structure (SMILES)
1 | 371 mg/mL | 4 mg/mL |  |  | Cl.N[C@H]1C(O)O[C@H](CO)[C@@H](O)[C@@H]1O (stereo partly drawn) [D-Glucosamine HCl]
2 |  |  | 860 mg/mL | 46 mg/mL | N[C@H]1[C@H](O[C@H]2[C@H](O)[C@@H](N)[C@H](O[C@H]3[C@H](O)[C@@H](N)[C@H](O[C@H]4[C@H](O)[C@@H](N)[C@H](O[C@H]5[C@H](O)[C@@H](N)C(O)O[C@@H]5CO)O[C@@H]4CO)O[C@@H]3CO)O[C@@H]2CO)O[C@H](CO)[C@@H](O)[C@@H]1O (stereo partly drawn) [Chitopentose HCl]
3 |  |  | 1770 mg/mL | 370 mg/mL | N[C@H]1[C@H](O[C@H]2[C@H](O)[C@@H](N)[C@H](O[C@H]3[C@H](O)[C@@H](N)C(O)O[C@@H]3CO)O[C@@H]2CO)O[C@H](CO)[C@@H](O)[C@@H]1O (stereo partly drawn) [Chitotriose HCl]
4 |  |  | 1900 mg/mL | 54 mg/mL | N[C@H]1[C@H](O[C@H]2[C@H](O)[C@@H](N)C(O)O[C@@H]2CO)O[C@H](CO)[C@@H](O)[C@@H]1O (stereo partly drawn) [Chitobiose HCl]
5 |  |  | 680 mg/mL | 17 mg/mL | N[C@H]1[C@H](O[C@H]2[C@H](O)[C@@H](N)[C@H](O[C@H]3[C@H](O)[C@@H](N)[C@H](O[C@H]4[C@H](O)[C@@H](N)[C@H](O[C@H]5[C@H](O)[C@@H](N)[C@H](O[C@H]6[C@H](O)[C@@H](N)C(O)O[C@@H]6CO)O[C@@H]5CO)O[C@@H]4CO)O[C@@H]3CO)O[C@@H]2CO)O[C@H](CO)[C@@H](O)[C@@H]1O (stereo partly drawn) [Chitohexose HCl]

Row | Structure (SMILES) | solubility ([1]; water) | solubility [2] | solubility [1, 3] | solubility [2, 4]
6 | N[C@H]1[C@H](O[C@H]2[C@H](O)[C@@H](N)[C@H](O[C@H]3[C@H](O)[C@@H](N)[C@H](O[C@H]4[C@H](O)[C@@H](N)C(O)O[C@@H]4CO)O[C@@H]3CO)O[C@@H]2CO)O[C@H](CO)[C@@H](O)[C@@H]1O (stereo partly drawn) [Chitotetrose HCl] |  |  | 1580 mg/mL | 450 mg/mL

Source: patent US5730876A, “Separation and purification of low molecular weight chitosan using multi-step membrane separation process” (You; Hyang-Ja, priority 1997, dated 1998)
